Source: paper PMC3031881, “Amyloid precursor protein selective gamma-secretase inhibitors for treatment of Alzheimer's disease” (Alzheimer's Research & Therapy, 2010)
Marks after values point to notes of the source that are not given here.

Tests used:
[1] = tested on: Notch signaling in SNC cells (rat NotchΔE, CBF-Luciferase); test: SNC dual cell assay, Notch signaling luciferase reporter; conditions: for APP selectivity (cellular, SNC assay): text of Discussion; for EC50: Rattus norvegicus, read-out: SNC Notch Signaling EC50
[2] = tested on: Aβ production in SNC cells (CHO APPSw); test: SNC dual cell assay, secreted Aβ1-x ELISA; conditions: Cricetulus griseus; for IC50: read-out: IC50 for inhibition of Aβ production in the SNC assay; for EC50: read-out: SNC Aβ EC50
[3] = biological target: T1, gamma-secretase complex (from CHO S1 cells) (Homo sapiens, UniProt P49768); test: Competitive displacement of biotinylated active site isostere (PS1/Nicastrin Western blot); format: binding
T1 construct: expressed in transfected cells; host or cells: CHO S1 cells

[4] = Compound levels in plasma and brain by LC-MS-MS; conditions: for concentration at 3 h: mouse
brain Aβx-40 in FVB mice [5] = test: Acute reduction of brain Aβx-40 in wild-type FVB mice; format: in vivo, mouse
Protocol: (§1) Water and food were available ad libitum. […] Control animals were dosed with vehicle.
Statistical significance was determined by ANOVA.

[6] = Oral bioavailability in rat; conditions: in vivo, read-out: oral bioavailability F
brain Aβ in PDAPP mice = test: Acute reduction of brain Aβ in PDAPP mice; format: in vivo, mouse; conditions: for reduction of brain Aβ1-x: 3 h
Protocol: as §1
Figure 4 Acute reduction of brain Aβ by ELN318463 in PDAPP (a) and FVB mice (b). The mice were dosed orally with vehicle, or ELN318463 at 30 mg/kg or 100 mg/kg and sacrificed 3 h post treatment. Brain Aβ1-x in PDAPP (a), or Aβx-40 in FVB (b) was quantified by ELISA following extraction in guanidine buffer as described in methods. ** denotes P < 0.01, *** denotes P < 0.001 by Mann-Whitney in A, and two-tailed Students t-test in (b). TEXT PRINTED IN THE PICTURE: (A) no label printed: Aβ reduction: 37% (30[mpk]); Aβ reduction: 48% (100[mpk]) | (B) no label printed: Aβ reduction: 18% (30[mpk]); Aβ reduction: 18% (100[mpk])

[7] = tested on: thymic Hes-1 mRNA (Notch signaling); test: Thymic Hes-1 mRNA after single dose in FVB mice (TaqMan RT-PCR); format: in vivo, mouse; conditions: three hours
Protocol: as §1

[8] = tested on: duodenum and ileum of FVB mice; test: Seven-day b.i.d. repeat dose study, small intestine histopathology (goblet cell hyperplasia); conditions: for goblet cells in ileum sections / goblet cell hyperplasia: seven days b.i.d.; for goblet cells in ileum sections: H&E and PAS stained sections; for goblet cell hyperplasia: LY411575 5 mg/kg duodenum and ileum, ELN475516 any dose, duodenum
[9] = Metabolism (N-glucuronidation); conditions: precluded longer-term studies in mice (or other models)
brain Aβx-40 in FVB mice [10] = test: Seven-day b.i.d. repeat dose study, brain Aβx-40; conditions: seven days; for reduction of brain Aβ: three hours post last dose
[11] = tested on: FVB mice (Math1 mRNA, body and organ weight, neutrophils); conditions: seven days b.i.d.; LY411575 5 mg/kg/dose; ELN475516 up to 1,000 mg/kg/dose
PDAPP mouse = tested on: PDAPP mouse; parameters: method as in earlier work; conditions: three and six months, doses which affected AD pathology; cited from earlier work
brain Aβ in Tg2576 mice = tested on: brain Aβ in Tg2576 mice; parameters: method as in PMID 19671883; conditions: cited from earlier work
[12] = tested on: APP metabolites in HEK293 cells stably expressing APPsw; test: APP metabolites by Western blot in inhibitor treated cells; conditions: approximately 1 X and 10 X ED50, overnight, cell extracts
[13] = single oral dose 30 mg/kg, three hours post dose
[14] = 15 mg/kg/dose b.i.d., 7 days, N = 5
[15] = 30 mg/kg/dose b.i.d., 7 days, N = 5
[16] = 100 mg/kg/dose b.i.d., 7 days, N = 5
[17] = 300 mg/kg/dose b.i.d., 7 days, N = 5
[18] = 600 mg/kg/dose b.i.d., 7 days, N = 5
[19] = 1,000 mg/kg/dose b.i.d., 7 days, N = 5
[20] = ileum, among all mice of the ELN475516 treated groups
[21] = 5 mg/kg/dose b.i.d., 7 days, goblet cell hyperplasia in affected animals

With NC(=O)[C@@H](CCC(F)(F)F)N(Cc1ccc(-c2ncon2)cc1F)S(=O)(=O)c1ccc(Cl)cc1 [BMS-708163] the “APP selectivity (cellular, SNC assay)” value [1] was 57 X and the IC50 [2] was 1.13 nM.
For O=C1NCCCC[C@H]1N(Cc1ccc(Br)cc1)S(=O)(=O)c1ccc(Cl)cc1 [ELN318463, N-(4-Bromobenzyl)-4-chloro-N-((3R)-2-oxoazepan-3-yl)benzenesulfonamide], the “displacement of biotinylated active site probe” value ([3]; in the absence of substrate) was “No displacement”, the concentration at 3 h ([4]; PDAPP, brain, po, 30 mg/kg) was 690 nM and the concentration at 3 h ([4]; PDAPP, brain, po, 100 mg/kg) was 1870 nM. The concentration at 3 h ([4]; female, FVB/N, brain, po, 30 mg/kg) was 754 nM, the concentration at 3 h ([4]; female, FVB/N, brain, po, 100 mg/kg) was 2700 nM and the “reduction of brain Aβx-40” value (brain Aβx-40 in FVB mice [5]; [13]) was 18%. The “reduction of brain Aβx-40” value (brain Aβx-40 in FVB mice [5]; single oral dose 100 mg/kg, 3 h post dose) was 18%, the bioavailability [6] was 30% and the EC50 [1] was 2820 nM. For the same compound, the “Cellular Selectivity (APP/Notch)” value ([1]; ratio of cellular Notch signaling and Aβ EC50) was 120, the EC50 [2] was 23.4 ± 8.6 nM and the “reduction of Aβx-40” value (brain Aβ in PDAPP mice; 30 mg/kg oral) was 20%. For the same compound, the “reduction of Aβx-40” value (brain Aβ in PDAPP mice; 100 mg/kg oral) was 25%, the “reduction of brain Aβ1-x” value (brain Aβ in PDAPP mice; single oral dose 30 mg/kg) was 37% and the “reduction of brain Aβ1-x” value (brain Aβ in PDAPP mice; single oral dose 100 mg/kg) was 48%.
With O=S(=O)(c1ccc(Cl)cc1)N1C2CCCC1c1cn[nH]c1C2 (centres unmarked) [ELN475516, 10-((4-Chlorophenyl)sulfonyl)-4,5,6,7,8,9-hexahydro-1H-4,8-epiminocycloocta(c)pyrazole] the “thymic Hes-1 mRNA” value ([7]; single oral dose 300 mg/kg (highest dose tested)) was “statistically significant reduction”, the “Duodenum # animals affected” value [8, 14] was 0 and the “Ileum # animals affected” value [8, 14] was 0. For the same compound, the “Duodenum # animals affected” value [8, 15] was 0, the “Ileum # animals affected” value [8, 15] was 4 and the “Ileum Mean severity score” value ([8]; 30 mg/kg/dose b.i.d., 7 days, affected animals) was 0.5. The “Duodenum # animals affected” value [8, 16] was 0, the “Ileum # animals affected” value [8, 16] was 2 and the “Ileum Mean severity score” value ([8]; 100 mg/kg/dose b.i.d., 7 days, affected animals) was 1.25. The “Duodenum # animals affected” value [8, 17] was 0, the “Ileum # animals affected” value [8, 17] was 0 and the “Duodenum # animals affected” value [8, 18] was 0. The “Ileum # animals affected” value [8, 18] was 2, the “Ileum Mean severity score” value ([8]; 600 mg/kg/dose b.i.d., 7 days, affected animals) was 0.5 and the “Duodenum # animals affected” value [8, 19] was 0. The “Ileum # animals affected” value [8, 19] was 1, the “Ileum Mean severity score” value ([8]; 1,000 mg/kg/dose b.i.d., 7 days, affected animals) was 0.5 and the “number of mice with a questionable increase in goblet cells” value [8, 20] was 8. For the same compound, the “number of mice with no increase in goblet cells” value [8, 20] was 21, the “goblet cells in ileum sections” value [8] was “no apparent dose-related increase” and the goblet cell hyperplasia [8] was “not observed”. The metabolic liability [9] was “Limiting N-glucuronidation”, the “terminal plasma compound levels” value ([4]; acute single dose study, highest dose tested (300 mg/kg), FVB mice) was 12.3 µM and the concentration at 3 h ([4]; female, FVB, in vivo, 15 mg/kg) was 187 nM. The concentration at 3 h ([4]; female, FVB, in vivo, 1000 mg/kg/dose) was 12300 nM, the “reduction of brain Aβ” value (brain Aβx-40 in FVB mice [10]; 15 mg/kg/dose b.i.d. oral) was 33% and the “maximal effect, reduction of brain Aβ” value (brain Aβx-40 in FVB mice [10]; >100 mg/kg b.i.d. oral) was 74%. For the same compound, the “brain Aβ levels by 24 hours post dose” value (brain Aβx-40 in FVB mice [5]; all treatment groups (30, 100, 300 mg/kg)) was “returning to baseline”, the “reduction of brain Aβ” value (brain Aβx-40 in FVB mice [5]; single oral dose 30 mg/kg, 10 hours post dose) was 28% and the “reduction of brain Aβx-40” value (brain Aβx-40 in FVB mice [5]; [13]) was 40%. The “reduction of brain Aβ” value (brain Aβx-40 in FVB mice [5]; single oral dose 100 mg/kg, 10 hours post dose) was 33%, the “reduction of brain Aβ” value (brain Aβx-40 in FVB mice [5]; single oral dose 100 mg/kg, 14 hours post dose) was 14% and the “reduction of brain Aβ” value (brain Aβx-40 in FVB mice [5]; single oral dose 300 mg/kg, 10 hours post dose) was 56%. The “reduction of brain Aβ” value (brain Aβx-40 in FVB mice [5]; single oral dose 300 mg/kg, 14 hours post dose) was 29%, the “reduction of brain Aβx-40” value (brain Aβx-40 in FVB mice [5]; single oral dose 300 mg/kg, three hours post dose) was 71% and the “time of maximal reduction of brain Aβ post dose” value (brain Aβx-40 in FVB mice [5]; single oral dose 30, 100, 300 mg/kg) was “three”. The EC50 [1] was 719 ± 225 nM, the EC50 [2] was 8.73 ± 3.96 nM and the “Math1 mRNA levels in duodenum and ileum” value [11] was “No effects”. For the same compound, the “reduction of cortical Aβ1-x” value (brain Aβ in PDAPP mice; single oral dose 10 mg/kg, three hours) was 31% and the “reduction of brain Aβ1-x” value (brain Aβ in PDAPP mice; single oral dose 30 mg/kg) was 45%.
For O=S(=O)(c1ccc(C(F)(F)F)cc1)N1c2cc(F)c(F)cc2-c2[nH]ncc2[C@H]1C1CC1 [ELND006], the “tolerability in chronic study” value (PDAPP mouse) is listed as “well tolerated”.
For O=S(=O)(N[C@H](CO)C(C(F)(F)F)C(F)(F)F)c1ccc(Cl)s1 [GSI-953], the “dose producing a similar magnitude effect (33% brain Aβ reduction)” value (brain Aβ in Tg2576 mice) is listed as 5 mg/kg, the “reduction of brain Aβx-40” value (brain Aβx-40 in FVB mice [5]; [13]) is listed as 33% and the “APP selectivity (cellular, SNC assay)” value [1] is listed as 45 X. The IC50 [2] was 8 nM.
In the case of CC(C)C[C@H](NC(=O)[C@H](Cc1ccccc1)C[C@@H](O)[C@H](Cc1ccccc1)NC(=O)OC(C)(C)C)C(=O)N[C@@H](Cc1ccccc1)C(N)=O [L-685,458, tert-Butyl (2S,3R,5R)-6-((S)-1-((S)-1-amino-1-oxo-3-phenylpropan-2-ylamino)-4-methyl-1-oxopentan-2-ylamino)-5-benzyl-3-hydroxy-6-oxo-1-phenylhexan-2-ylcarbamate], the “captured gamma-secretase complex competed” value ([3]; co-incubation with 10 μM, 50 nM biotinylated probe, preliminary experiments) is reported as over 90%, the “concentration for 50% displacement of biotinylated active site isostere probe, above IC50 in the gammaAPP assay” value ([3]; no added substrate) is reported as “approximately three” and the “effect on α-CTF and β-CTF of APP” value [12] is reported as “stabilize both α-CTF and β-CTF in a dose-dependent manner”. The EC50 [1] was 184 ± 145 nM and the EC50 [2] was 13.2 ± 4.5 nM.
For C[C@H](NC(=O)[C@@H](O)c1cc(F)cc(F)c1)C(=O)N[C@@H]1C(=O)N(C)c2ccccc2-c2ccccc21 [LY411575, (S)-2-((S)-2-(3,5-Difluorophenyl)-2-hydroxyacetamido)-N-((S)-5-methyl-6-oxo-6,7-dihydro-5H-dibenzo(b,d)azepin-7-yl)propanamide, reference compound], the “reduction of thymic Hes-1 mRNA” value ([7]; single oral dose 10 mg/kg) was 60%, the “Ileum # animals affected” value ([8]; 5 mg/kg/dose b.i.d., 7 days, N = 5) was 5 and the “Duodenum # animals affected” value ([8]; 5 mg/kg/dose b.i.d., 7 days, N = 5 (tissue lost from one animal)) was 4*. For the same compound, the “Duodenum Mean severity score” value [8, 21] was 2, the “Ileum Mean severity score” value [8, 21] was 3 and the “goblet cells in ileum sections” value [8] was “moderate increase in goblet cells”. For the same compound, the goblet cell hyperplasia [8] was “readily apparent”, the “reduction of brain Aβ” value (brain Aβx-40 in FVB mice [10]; 5 mg/kg b.i.d. oral) was 83% and the “reduction of brain Aβx-40” value (brain Aβx-40 in FVB mice [5]; single oral dose 10 mg/kg, three hours post dose) was 74%. For the same compound, the EC50 [1] was 1.8 ± 1.35 nM, the EC50 [2] was 0.116 ± 0.011 nM and the “Math1 mRNA levels in duodenum and ileum” value [11] was “robust elevation”.
